Measurements published in article PMC6266305 (Nutrients, 2018).
Several values for one entry are separate records, joined by “and”; a condition that tells them apart may be missing. Equal values may be shown once. Entries after “also recorded” stand apart in the source; their conditions may differ.

What was measured:
Caco-2 TC7 cells = experiment: Uptake and apical-to-basolateral transport by Caco-2 TC7 cell monolayers of diluted aqueous fractions from in vitro digestions; type: in vitro ADME, human; details: for FA at the basolateral side as percentage (CA equivalent) of the initial CA amount in the apical side: 6 h, FA is the CA metabolite; for Recovery in the cytosolic compartment of the cells or in the basolateral media (crossing of Caco-2 monolayers, native form): 6-h incubation; for Decrease of amount in the apical media: 6-h incubation on cell monolayers
Method: Caco-2 TC7 cells were grown in DMEM supplemented with 16% (v/v) fetal bovine serum, 1% (v/v) non-essential amino-acids, and 1% (v/v) antibiotics (complete medium), as previously described. Cells were then seeded at a density of 15 000 cells/well, grown on transwell membrane (six-well plate, […] polycarbonate membrane; Becton Dickinson) and incubated in humidified atmosphere of 5% CO2 and 95% air at 37 °C during 21 days to obtain confluent and differentiated cell monolayers.
The cytotoxicity on Caco-2 cells of the aqueous fractions from in vitro digestions was first assessed to determine the suitable dilution required before adding the aqueous fractions to the apical side of cell monolayers. […] To avoid any interference with DMEM or serum components, the aqueous fractions were diluted in HBSS. Caco-2 cells also received HBSS in both chambers 12 h before the experiments. At the beginning of each experiment, cells were rinsed twice with 1 mL of PBS. Then, 1 mL of diluted aqueous fraction was added to the apical side and 2 mL of HBSS were added at the basolateral side. After an incubation period (2, 4, or 6 h) at 37 °C, both apical and basolateral media were harvested. Cells were then rinsed twice with 1mL of PBS and scrapped in 0.5 mL of iced-cold PBS. All analyses were run in quadruplicate and samples were stored at −80 °C until further analysis.
Gallic acid was chosen as internal standard as it was not present in the extract. Phenolic compounds were extracted from salivary, gastric and duodenal samples as follows: 0.3 mL of ethanol and 0.2 mL of n-hexane were added to 0.2 mL of sample and the mixture was stirred for 10 min using a vortex blender at maximal speed. After centrifugation (3560 g for 10 min at 4 °C), the lower phase was collected. The solid bottom was re-extracted with 0.3 mL of ethanol and vortexed for 10 min. The second ethanol phase recovered was pooled to the previously collected phase, and then dried using a Speed-Vac®. The dried extracts were dissolved in 200 µL of water. Apical media were directly injected. To concentrate them, basolateral media (1900 µL) were dried using a Speed-Vac®, and the dried residues were dissolved into 80 µL of water. All samples were stored at −80 °C before analysis.
Following the procedure by Gallardo et al. (2016), 50 µL of internal standard were added to harvested cells (in 500 µL PBS). Samples were then sonicated for 10 min at room temperature and centrifuged (10,000 g for 10 min at 4 °C). Supernatants were collected and evaporated to dryness. The dried residues were dissolved in 50 µL of water and stored at −80 °C before analysis.
All samples were analyzed by UHPLC-DAD-MS using an Acquity UPLC® system that was linked to both a diode-array detector and a Bruker Daltonics HCT Ultra Ion Traps mass spectrometer equipped with an Electron Spray Ionization (ESI) source operating in negative ion mode. The separation was performed on an Acquity C18 BEH column (50 × 2.1 mm i.d., 1.7 µm) kept at 35 °C. The solvents were (A) water/formic acid (99.5/0.5) and (B) acetonitrile. The proportions of solvent B used were: 0–10 min: 1–20%, 10–12 min: 20–30%, 12–14 min: 30–100%. Along the three steps of the gradient, the flow rate was 0.30, 0.35, and 0.40 mL/min. The injection volume was 1 μL for digestion and apical medium samples, and 10 µL for cells and basolateral samples. Chromatograms were acquired at 280 nm. The spectroscopic detection was performed in the range 200–800 nm with a resolution of 1.2 nm. The concentrations of phenolic compounds Tyr, CA, and p-Cm were estimated from calibration curves (peak area vs. concentration) with R² values greater than 0.99 [26].
Results were expressed as means ± standard deviations. Differences between means were assessed using ANOVA followed by the post-hoc Tukey test for parametric data. P values under 0.05 were considered to be significant. […]

Caco-2 cells = experiment: Overall in vitro bioavailability: basolateral amount in Caco-2 cells relative to the initial amount in the test meal before in vitro digestion; type: in vitro ADME, human; details: mean ± SD (n = 4)
Method: The in vitro digestion was carried out as previously described. […] The mixture was dispersed with Ultra-Turrax® (Ika) and artificial saliva (2.5 mL, pH 7) was added to the mixture. The sample was incubated for 10 min at 37 °C in a shaking incubator. […] Then, porcine pepsin (2 mL, 40 mg/mL in 0.1 M HCl) was added and the homogenate was incubated at 37 °C in a shaking incubator for 30 min simulating the gastric step. […] Samples were incubated in a shaking incubator at 37 °C for 30 min to complete the digestion process. The final mixture representing the digesta was centrifuged (2500 g for 1 h at 10 °C) to separate the aqueous fraction. […] The cytotoxicity on Caco-2 cells of the aqueous fractions from in vitro digestions was first assessed to determine the suitable dilution required before adding the aqueous fractions to the apical side of cell monolayers. […] To avoid any interference with DMEM or serum components, the aqueous fractions were diluted in HBSS. Caco-2 cells also received HBSS in both chambers 12 h before the experiments. At the beginning of each experiment, cells were rinsed twice with 1 mL of PBS. […] Cells were then rinsed twice with 1mL of PBS and scrapped in 0.5 mL of iced-cold PBS. All analyses were run in quadruplicate and samples were stored at −80 °C until further analysis. Results were expressed as means ± standard deviations. Differences between means were assessed using ANOVA followed by the post-hoc Tukey test for parametric data. […] Two parameters were assessed to express the bioavailability: a) the ratio between the mass of phenolic compounds recovered at the basolateral side and the initial mass added to the apical side, b) the ratio between the mass of phenolic compounds recovered at the basolateral side and the initial mass added to the meal.

[1] = In vitro digestion model: bioaccessibility of alperujo phenolic compounds added to a test meal (percentage found in the aqueous phase of the digesta); type: in vitro ADME; details: average of alperujo and alperujo-CD, mean ± SD
Method: The in vitro digestion was carried out as previously described. […] The mixture was dispersed with Ultra-Turrax® (Ika) and artificial saliva (2.5 mL, pH 7) was added to the mixture. The sample was incubated for 10 min at 37 °C in a shaking incubator. The pH of the gastric medium was adjusted to 4.00 ± 0.02 with 1 M HCl. Then, porcine pepsin (2 mL, 40 mg/mL in 0.1 M HCl) was added and the homogenate was incubated at 37 °C in a shaking incubator for 30 min simulating the gastric step. The pH of the mixture was raised to 6.00 ± 0.02 with 0.9 M NaHCO3 and 13 mL of a mixture of porcine bile extract (39.08 mg/mL) and pancreatin (2.08 mg/mL) in 0.1 M trisodium citrate (pH 6) were added. Samples were incubated in a shaking incubator at 37 °C for 30 min to complete the digestion process. The final mixture representing the digesta was centrifuged (2500 g for 1 h at 10 °C) to separate the aqueous fraction. […] All analyses were run in quadruplicate. Aliquots from salivary, gastric, and duodenal steps were frozen at −80 °C until use. […] After centrifugation (3560 g for 10 min at 4 °C), the lower phase was collected. The solid bottom was re-extracted with 0.3 mL of ethanol and vortexed for 10 min. The second ethanol phase recovered was pooled to the previously collected phase, and then dried using a Speed-Vac®. The dried extracts were dissolved in 200 µL of water. Apical media were directly injected. […] All samples were stored at −80 °C before analysis. All samples were analyzed by UHPLC-DAD-MS using an Acquity UPLC® system that was linked to both a diode-array detector and a Bruker Daltonics HCT Ultra Ion Traps mass spectrometer equipped with an Electron Spray Ionization (ESI) source operating in negative ion mode. The separation was performed on an Acquity C18 BEH column (50 × 2.1 mm i.d., 1.7 µm) kept at 35 °C. The solvents were (A) water/formic acid (99.5/0.5) and (B) acetonitrile. […] Along the three steps of the gradient, the flow rate was 0.30, 0.35, and 0.40 mL/min. […] Chromatograms were acquired at 280 nm. The spectroscopic detection was performed in the range 200–800 nm with a resolution of 1.2 nm.

[2] = parameters: method as in PMID 21494673; details: cited from earlier work

COc1cc(/C=C/C(=O)O)ccc1O [FA, Ferulic acid]
FA at the basolateral side as percentage (CA equivalent) of the initial CA amount in the apical side (Caco-2 TC7 cells; from alperujo-CD): 23.4 ± 2.2% and 23.4 ± 2.2 ^b % | FA at the basolateral side as percentage (CA equivalent) of the initial CA amount in the apical side (Caco-2 TC7 cells; from alperujo): 18.8 ± 1.0% and 18.8 ± 1.0 ^a % | Absorption efficiency of FA through cell monolayers, percentage of the initial CA amount (Caco-2 TC7 cells; alperujo and alperujo-CD): ~ 20% | Bioavailability of FA (CA metabolite) in Caco-2 cells as percentage of initial amount in the test meal before in vitro digestion (Caco-2 cells; from alperujo-CD): 10.0 ± 1.0 ^a % | Bioavailability of FA (CA metabolite) in Caco-2 cells as percentage of initial amount in the test meal before in vitro digestion (Caco-2 cells; from alperujo): 8.9 ± 0.5 ^a %

O=C(O)/C=C/c1ccc(O)c(O)c1 [CA, caffeic acid]
recovery ([1]; pig, pH 6, in vitro digestion with test meal, read-out: Bioaccessibility (recovery in the final aqueous phase at the duodenal step)): ~64.9% | Recovery in the cytosolic compartment of the cells or in the basolateral media (crossing of Caco-2 monolayers, native form) (Caco-2 TC7 cells): neither HT-Glc nor CA was recovered; also recorded: not recovered; also recorded: not found bioavailable in its native form | Decrease of amount in the apical media (Caco-2 TC7 cells; from alperujo): ~18% | Recovery in the cytosolic compartment of the cells or in the basolateral media (crossing of Caco-2 monolayers, native form) (Caco-2 TC7 cells; listed as caffeic): did not cross Caco-2 cell monolayers

O=C1C[C@@H](c2ccc(O)cc2)Oc2cc(O)cc(O)c21 [naringenin]
Improvement of absorption through the gut epithelium by hydroxypropyl-β-CD [2]: 11 fold

hydroxytyrosol-O-glucoside [HT-Glc]
Bioaccessibility (recovery in the final aqueous phase at the duodenal step) ([1]; in vitro digestion with test meal): 73.2 ± 4.5% | Recovery in the cytosolic compartment of the cells or in the basolateral media (crossing of Caco-2 monolayers, native form) (Caco-2 TC7 cells): neither HT-Glc nor CA was recovered; also recorded: no HT-Glc was recovered | Decrease of amount in the apical media (Caco-2 TC7 cells; from alperujo): about 10% | Recovery in the cytosolic compartment of the cells or in the basolateral media (crossing of Caco-2 monolayers, native form) (Caco-2 TC7 cells; listed as Hydroxytyrosol-O-glucoside): did not cross Caco-2 cell monolayers
